Source: patent US20230372498A1, “PLK1 SELECTIVE DEGRADATION INDUCING COMPOUND” (UPPTHERA, priority 2020, published 2023)

Target: T1, PLK1 (Homo sapiens, UniProt P53350)
T1 construct: endogenous in cells; host or cells: HeLa
Assay: PLK1 protein degradation in HeLa cells, Western blotting (PLK1/GAPDH ratio)
Format: cell-based
Conditions: 6 hours compound incubation; for DC50: measured only if the grade of Dmax is A or B; for Dmax: thymidine block and release, 10 points three-fold from 3 μM, PLK1 to GAPDH ratio, read-out: Dmax
Method in brief: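 Thymidine-synchronised HeLa cells (2 mM, 24 h) released 4 h into complete medium, then treated 6 h with compound in 10-point 3-fold dilutions from 3 μM. RIPA lysates (15 μg protein) run on SDS-PAGE; PLK1 Western blot normalised to GAPDH.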

T1 sequence (P53350 whole entry): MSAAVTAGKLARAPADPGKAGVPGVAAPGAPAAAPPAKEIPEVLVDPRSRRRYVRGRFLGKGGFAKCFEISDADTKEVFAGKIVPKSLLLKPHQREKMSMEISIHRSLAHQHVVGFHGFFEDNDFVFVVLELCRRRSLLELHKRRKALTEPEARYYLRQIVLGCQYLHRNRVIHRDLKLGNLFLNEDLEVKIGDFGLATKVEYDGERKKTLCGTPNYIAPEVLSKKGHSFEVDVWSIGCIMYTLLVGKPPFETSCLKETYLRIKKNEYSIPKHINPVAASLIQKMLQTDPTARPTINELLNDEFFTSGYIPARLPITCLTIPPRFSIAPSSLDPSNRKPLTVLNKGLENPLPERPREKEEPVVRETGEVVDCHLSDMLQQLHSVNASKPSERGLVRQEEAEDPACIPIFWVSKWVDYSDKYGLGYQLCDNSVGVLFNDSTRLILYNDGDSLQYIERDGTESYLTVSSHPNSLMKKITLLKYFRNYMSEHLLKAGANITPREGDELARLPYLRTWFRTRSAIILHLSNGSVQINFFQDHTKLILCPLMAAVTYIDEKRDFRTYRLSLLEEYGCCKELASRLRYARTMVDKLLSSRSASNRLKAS

Row | DC50 | Dmax | SMILES
1 | ≤ 50 nM | ≥ 80% | COc1cc(C(=O)NC2CCN(CCCCCCCc3cccc(CNC(=O)COc4cccc5c4C(=O)N(C4CCC(=O)NC4=O)C5=O)c3)CC2)c(F)cc1Nc1ncc2c(n1)N(C1CCCC1)CC(F)(F)C(=O)N2C (stereo not drawn) [Compound 63, 4-((9-cyclopentyl-7,7-difluoro-5-methyl-6-oxo-6,7,8,9-tetrahydro-5H-pyrimido[4,5-b][1,4]diazepin-2-yl)amino)-N-(1-(7-(3-((2-((2-(2,6-dioxopiperidin-3-yl)-1,3-dioxoisoindolin-4-yl)oxy)acetamido)methyl)phenyl)heptyl)piperidin-4-yl)-2-fluoro-5-methoxybenzamide]
2 | ≤ 50 nM | ≥ 80% | COc1cc(C(=O)NC2CCN(CCCCCCCc3cncc(CNC(=O)COc4cccc5c4C(=O)N(C4CCC(=O)NC4=O)C5=O)c3)CC2)c(F)cc1Nc1ncc2c(n1)N(C1CCCC1)CC(F)(F)C(=O)N2C (stereo not drawn) [Compound 64, 4-((9-cyclopentyl-7,7-difluoro-5-methyl-6-oxo-6,7,8,9-tetrahydro-5H-pyrimido[4,5-b][1,4]diazepin-2-yl)amino)-N-(1-(7-(5-((2-((2-(2,6-dioxopiperidin-3-yl)-1,3-dioxoisoindolin-4-yl)oxy)acetamido)methyl)pyridin-3-yl)heptyl)piperidin-4-yl)-2-fluoro-5-methoxybenzamide]
3 | ≤ 50 nM | ≥ 80% | COc1cc(C(=O)NC2CCN(CC3CCN(c4cccc5c4C(=O)N(C4CCC(=O)NC4=O)C5=O)CC3)CC2)c(F)cc1Nc1ncc2c(n1)N(C1CCCC1)CC(F)(F)C(=O)N2C (stereo not drawn) [Compound 65, 4-((9-cyclopentyl-7,7-difluoro-5-methyl-6-oxo-6,7,8,9-tetrahydro-5H-pyrimido[4,5-b][1,4]diazepin-2-yl)amino)-N-(1-((1-(2-(2,6-dioxopiperidin-3-yl)-1,3-dioxoisoindolin-4-yl)piperidin-4-yl)methyl)piperidin-4-yl)-2-fluoro-5-methoxybenzamide]
4 | ≤ 500 nM | 60 to 80% | COc1cc(C(=O)NC2CCN(CCN3CCN(c4cccc5c4C(=O)N(C4CCC(=O)NC4=O)C5=O)CC3)CC2)c(F)cc1Nc1ncc2c(n1)N(C1CCCC1)CC(F)(F)C(=O)N2C (stereo not drawn) [Compound 66, 4-((9-cyclopentyl-7,7-difluoro-5-methyl-6-oxo-6,7,8,9-tetrahydro-5H-pyrimido[4,5-b][1, 4]diazepin-2-yl)amino)-N-(1-(2-(4-(2-(2,6-dioxopiperidin-3-yl)-1,3-dioxoisoindolin-4-yl)piperazin-1-yl)ethyl)piperidin-4-yl)-2-fluoro-5-methoxybenzamide]
5 | ≤ 500 nM | 60 to 80% | COc1cc(C(=O)NC2CCN(CC3CCN(c4ccc5c(c4)C(=O)N(C4CCC(=O)NC4=O)C5=O)CC3)CC2)c(F)cc1Nc1ncc2c(n1)N(C1CCCC1)CC(F)(F)C(=O)N2C (stereo not drawn) [Compound 67, 4-((9-cyclopentyl-7,7-difluoro-5-methyl-6-oxo-6,7,8,9-tetrahydro-5H-pyrimido[4,5-b][1,4]diazepin-2-yl)amino)-N-(1-((1-(2-(2,6-dioxopiperidin-3-yl)-1,3-dioxoisoindolin-5-yl)piperidin-4-yl)methyl)piperidin-4-yl)-2-fluoro-5-methoxybenzamide]
6 | ≤ 500 nM | 60 to 80% | COc1cc(C(=O)NC2CCN(CCN3CCN(c4ccc5c(c4)C(=O)N(C4CCC(=O)NC4=O)C5=O)CC3)CC2)c(F)cc1Nc1ncc2c(n1)N(C1CCCC1)CC(F)(F)C(=O)N2C (stereo not drawn) [Compound 68, 4-((9-cyclopentyl-7,7-difluoro-5-methyl-6-oxo-6,7,8,9-tetrahydro-5H-pyrimido[4,5-b][1,4]diazepin-2-yl)amino)-N-(1-(2-(4-(2-(2,6-dioxopiperidin-3-yl)-1,3-dioxoisoindolin-5-yl)piperazin-1-yl)ethyl)piperidin-4-yl)-2-fluoro-5-methoxybenzamide]
7 | ≤ 50 nM | ≥ 80% | COc1cc(C(=O)NC2CCN(C(=O)N3CCN(c4cccc5c4C(=O)N(C4CCC(=O)NC4=O)C5=O)CC3)CC2)c(F)cc1Nc1ncc2c(n1)N(C1CCCC1)CC(F)(F)C(=O)N2C (stereo not drawn) [Compound 69, 4-((9-cyclopentyl-7,7-difluoro-5-methyl-6-oxo-6,7,8,9-tetrahydro-5H-pyrimido[4,5-b][1,4]diazepin-2-yl)amino)-N-(1-(4-(2-(2,6-dioxopiperidin-3-yl)-1,3-dioxoisoindolin-4-yl)piperazine-1-carbonyl)piperidin-4-yl)-2-fluoro-5-methoxybenzamide]
8 | ≤ 500 nM | 60 to 80% | COc1cc(C(=O)NC2CCN(C(=O)CN3CCN(c4cccc5c4C(=O)N(C4CCC(=O)NC4=O)C5=O)CC3)CC2)c(F)cc1Nc1ncc2c(n1)N(C1CCCC1)CC(F)(F)C(=O)N2C (stereo not drawn) [Compound 70, 4-((9-cyclopentyl-7,7-difluoro-5-methyl-6-oxo-6,7,8,9-tetrahydro-5H-pyrimido[4,5-b][1,4]diazepin-2-yl)amino)-N-(1-(2-(4-(2-(2,6-dioxopiperidin-3-yl)-1,3-dioxoisoindolin-4-yl)piperazin-1-yl)acetyl)piperidin-4-yl)-2-fluoro-5-methoxybenzamide]
9 | ≤ 50 nM | ≥ 80% | COc1cc(C(=O)NC2CCN(C(=O)CCN3CCN(c4cccc5c4C(=O)N(C4CCC(=O)NC4=O)C5=O)CC3)CC2)c(F)cc1Nc1ncc2c(n1)N(C1CCCC1)CC(F)(F)C(=O)N2C (stereo not drawn) [Compound 71, 4-((9-cyclopentyl-7,7-difluoro-5-methyl-6-oxo-6,7,8,9-tetrahydro-5H-pyrimido[4,5-b][1,4]diazepin-2-yl)amino)-N-(1-(3-(4-(2-(2,6-dioxopiperidin-3-yl)-1,3-dioxoisoindolin-4-yl)piperazin-1-yl)propanoyl)piperidin-4-yl)-2-fluoro-5-methoxybenzamide]
10 | ≤ 500 nM | 60 to 80% | COc1cc(C(=O)NC2CCN(C(=O)N3CCN(c4ccc5c(c4)C(=O)N(C4CCC(=O)NC4=O)C5=O)CC3)CC2)c(F)cc1Nc1ncc2c(n1)N(C1CCCC1)CC(F)(F)C(=O)N2C (stereo not drawn) [Compound 72, 4-((9-cyclopentyl-7,7-difluoro-5-methyl-6-oxo-6,7,8,9-tetrahydro-5H-pyrimido[4,5-b][1,4]diazepin-2-yl)amino)-N-(1-(4-(2-(2,6-dioxopiperidin-3-yl)-1,3-dioxoisoindolin-5-yl)piperazine-1-carbonyl)piperidin-4-yl)-2-fluoro-5-methoxybenzamide]
11 | ≤ 50 nM | ≥ 80% | COc1cc(C(=O)NC2CCN(C(=O)CN3CCN(c4ccc5c(c4)C(=O)N(C4CCC(=O)NC4=O)C5=O)CC3)CC2)c(F)cc1Nc1ncc2c(n1)N(C1CCCC1)CC(F)(F)C(=O)N2C (stereo not drawn) [Compound 73, 4-((9-cyclopentyl-7,7-difluoro-5-methyl-6-oxo-6,7,8,9-tetrahydro-5H-pyrimido[4,5-b][1,4]diazepin-2-yl)amino)-N-(1-(2-(4-(2-(2,6-dioxopiperidin-3-yl)-1,3-dioxoisoindolin-5-yl)piperazin-1-yl)acetyl)piperidin-4-yl)-2-fluoro-5-methoxybenzamide]
12 | ≤ 50 nM | ≥ 80% | COc1cc(C(=O)NC2CCN(C(=O)CCN3CCN(c4ccc5c(c4)C(=O)N(C4CCC(=O)NC4=O)C5=O)CC3)CC2)c(F)cc1Nc1ncc2c(n1)N(C1CCCC1)CC(F)(F)C(=O)N2C (stereo not drawn) [Compound 74, 4-((9-cyclopentyl-7,7-difluoro-5-methyl-6-oxo-6,7,8,9-tetrahydro-5H-pyrimido[4,5-b][1,4]diazepin-2-yl)amino)-N-(1-(3-(4-(2-(2,6-dioxopiperidin-3-yl)-1,3-dioxoisoindolin-5-yl)piperazin-1-yl)propanoyl)piperidin-4-yl)-2-fluoro-5-methoxybenzamide]
